Reference: patent publication US7119121B2, “3,3-diphenylpropylamines useful in therapy” (Pfizer Inc., priority 2003, dated 2006)

Tests used:
[1] = molecular target: T1, muscarinic receptor subtype M1 (Homo sapiens, UniProt P11229); experiment: In vitro muscarinic receptor binding assay ([3H]NMS competition, SPA); details: cloned human receptors in CHO cell membranes, [3H]N-methylscopolamine, average of four determinations
T1 construct: purchased Receptor Biology division of Perkin Elmer Life Sciences (Beltsville, Md.)
T1 sequence (P11229 1-460): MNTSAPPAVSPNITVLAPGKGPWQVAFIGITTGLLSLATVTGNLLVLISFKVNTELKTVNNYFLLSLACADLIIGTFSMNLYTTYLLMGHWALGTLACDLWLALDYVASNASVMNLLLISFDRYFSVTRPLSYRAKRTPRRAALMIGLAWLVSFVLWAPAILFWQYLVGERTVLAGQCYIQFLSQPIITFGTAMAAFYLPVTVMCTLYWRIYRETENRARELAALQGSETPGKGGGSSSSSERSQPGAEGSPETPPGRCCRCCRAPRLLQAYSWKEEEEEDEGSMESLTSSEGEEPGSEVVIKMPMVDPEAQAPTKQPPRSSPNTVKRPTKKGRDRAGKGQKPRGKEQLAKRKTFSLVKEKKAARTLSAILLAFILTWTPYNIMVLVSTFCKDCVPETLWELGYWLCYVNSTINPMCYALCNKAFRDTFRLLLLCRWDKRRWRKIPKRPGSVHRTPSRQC
Method: (§1) Affinities of test compounds for muscarinic receptor subtypes M1–M4 were determined. Competition radioligand binding experiments employed 11 drug concentrations run in duplicate. [^3H]N-methylscopolamine (NMS) was used as an antagonist radioligand, at the concentration equal to its equilibrium dissociation constant (Kd) for each receptor subtype. […] Total binding was determined with phosphate buffered saline (PBS). Cloned human receptors permanently expressed in CHO cells were the source of all binding sites. Membranes were purchased from Receptor Biology division of Perkin Elmer Life Sciences (Beltsville, Md.). The assays were run in scintillation proximity assay (SPA) format. Binding mixtures were made in flexible, 96-well, Wallac Micro-Beta plates by the addition of 11 μl of drug dilution, 11 μl of radioligand, and 178 μl of membrane/SPA bead suspension (100 mg of WGA-coated SPA beads, incubated with 5–15 μg protein/plate in 10 ml PBS for 30 min at room temperature, followed by low-speed centrifugation and resuspension in 2 ml PBS). After sealing and incubation at room temperature for 1 hour the plates were counted in a Wallac Micro-Beta scintillation counter. IC50 values were estimated by fitting the data to a one-site competition model: Y=T/(1+10^log(x)−log(IC50)), where Y is the specific CPM's bound at concentration X, and T is the specific CPM's bound in the absence of competitor. Inhibition constants (Ki) were calculated using the Cheng-Prushoff equation (Cheng, Y; Prushoff, W H, Biochem Pharmacol 22: 3099–3108, 1973). Curve fitting and Ki calculations were carried out using GraphPad Prism, version 3.0 (San Diego, Calif.).
(§2) Results are the average of four separate determinations. In vitro Binding

[2] = molecular target: T2, muscarinic receptor subtype M4 (Homo sapiens, UniProt P08173); experiment: as above; details: cloned human receptors in CHO cell membranes, [3H]N-methylscopolamine, average of four determinations
T2 construct: purchased Receptor Biology division of Perkin Elmer Life Sciences (Beltsville, Md.)
T2 sequence (P08173 1-479): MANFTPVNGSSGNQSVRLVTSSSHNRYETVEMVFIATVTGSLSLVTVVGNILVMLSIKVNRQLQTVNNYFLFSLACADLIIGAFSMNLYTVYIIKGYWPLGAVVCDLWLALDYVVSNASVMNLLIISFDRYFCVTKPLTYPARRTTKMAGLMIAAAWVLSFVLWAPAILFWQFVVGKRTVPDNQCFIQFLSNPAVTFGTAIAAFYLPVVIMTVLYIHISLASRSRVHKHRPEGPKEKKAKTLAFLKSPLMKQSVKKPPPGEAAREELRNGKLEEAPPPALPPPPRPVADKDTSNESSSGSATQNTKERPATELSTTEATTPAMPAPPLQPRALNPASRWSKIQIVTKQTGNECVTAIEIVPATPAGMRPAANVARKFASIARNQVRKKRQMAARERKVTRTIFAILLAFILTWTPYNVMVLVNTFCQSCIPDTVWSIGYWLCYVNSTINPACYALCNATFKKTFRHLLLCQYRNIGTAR
Method: as §1, §2

P450 CYP2D6 enzyme = P450 CYP2D6 enzyme (Homo sapiens, UniProt P10635); experiment: Protection from CYP2D6 metabolism (microsome incubation, HPLC); assay type: in vitro ADME; details: approx. 10 μM [14C]-labeled compound, microsomes with CYP2D6 (20 pmol), 1 mM β-NADPH, pH 7.4, 37° C., 20 min
Method: [^14C]-labeled N,N-diisopropyl-3-(2-hydroxy-5-trifluoromethylphenyl)-3-phenylpropanamine is synthesized, following the general procedure of examples 1–9. Approximately 10 μM of the compound is incubated with microsomes containing P450 CYP2D6 enzyme (20 pmol) in 100 mM potassium phosphate buffer (pH 7.4) and 1 mM β-NADPH at 37° C. in a final volume of 250 μl for 20 min.
The incubations are analyzed for the parent drug and its metabolites by HPLC using standard procedures. The amount of each metabolite is calculated from the resulting radiochromatogram. The retention times of formed metabolites are compared with the retention times of synthesized reference standards, and the identity of the formed metabolites is further confirmed by electrospray ionization mass spectrometry.

[3] = molecular target: T3, muscarinic receptor subtype M2 (Homo sapiens, UniProt P08172); experiment: In vitro muscarinic receptor binding assay ([3H]NMS competition, SPA); details: cloned human receptors in CHO cell membranes, [3H]N-methylscopolamine, average of four determinations
T3 construct: purchased Receptor Biology division of Perkin Elmer Life Sciences (Beltsville, Md.)
T3 sequence (P08172 1-466): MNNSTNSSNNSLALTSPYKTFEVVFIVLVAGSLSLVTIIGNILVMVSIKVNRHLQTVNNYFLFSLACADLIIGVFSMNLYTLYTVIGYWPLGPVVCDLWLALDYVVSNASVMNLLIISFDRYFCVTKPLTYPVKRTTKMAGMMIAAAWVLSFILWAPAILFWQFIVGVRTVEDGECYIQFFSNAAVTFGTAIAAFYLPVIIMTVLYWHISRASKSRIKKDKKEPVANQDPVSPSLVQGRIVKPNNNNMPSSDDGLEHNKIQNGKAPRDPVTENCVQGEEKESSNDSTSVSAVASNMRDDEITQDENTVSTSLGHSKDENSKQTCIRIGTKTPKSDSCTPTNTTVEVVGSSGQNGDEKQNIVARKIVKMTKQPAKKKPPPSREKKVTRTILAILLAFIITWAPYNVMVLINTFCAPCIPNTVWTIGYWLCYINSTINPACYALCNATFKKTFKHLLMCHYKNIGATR
Method: as §1, §2

[4] = molecular target: T4, muscarinic receptor subtype M3 (Homo sapiens, UniProt P20309); experiment: as above; details: cloned human receptors in CHO cell membranes, [3H]N-methylscopolamine, average of four determinations
T4 construct: purchased Receptor Biology division of Perkin Elmer Life Sciences (Beltsville, Md.)
Method: as §1, §2

Sequence of P450 CYP2D6 enzyme (P10635 whole entry): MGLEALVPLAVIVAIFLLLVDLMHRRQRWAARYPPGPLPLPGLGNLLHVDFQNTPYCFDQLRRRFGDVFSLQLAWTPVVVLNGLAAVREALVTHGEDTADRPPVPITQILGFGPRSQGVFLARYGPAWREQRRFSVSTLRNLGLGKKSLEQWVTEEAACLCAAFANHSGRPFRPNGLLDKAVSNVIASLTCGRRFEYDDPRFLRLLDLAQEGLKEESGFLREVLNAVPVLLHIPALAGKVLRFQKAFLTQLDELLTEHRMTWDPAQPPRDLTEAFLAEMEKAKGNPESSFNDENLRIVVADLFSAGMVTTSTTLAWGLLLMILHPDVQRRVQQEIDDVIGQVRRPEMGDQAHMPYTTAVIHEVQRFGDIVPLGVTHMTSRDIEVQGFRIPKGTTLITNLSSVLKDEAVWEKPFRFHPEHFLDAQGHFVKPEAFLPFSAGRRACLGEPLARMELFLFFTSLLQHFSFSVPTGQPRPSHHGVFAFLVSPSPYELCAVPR
T4 sequence (P20309 whole entry): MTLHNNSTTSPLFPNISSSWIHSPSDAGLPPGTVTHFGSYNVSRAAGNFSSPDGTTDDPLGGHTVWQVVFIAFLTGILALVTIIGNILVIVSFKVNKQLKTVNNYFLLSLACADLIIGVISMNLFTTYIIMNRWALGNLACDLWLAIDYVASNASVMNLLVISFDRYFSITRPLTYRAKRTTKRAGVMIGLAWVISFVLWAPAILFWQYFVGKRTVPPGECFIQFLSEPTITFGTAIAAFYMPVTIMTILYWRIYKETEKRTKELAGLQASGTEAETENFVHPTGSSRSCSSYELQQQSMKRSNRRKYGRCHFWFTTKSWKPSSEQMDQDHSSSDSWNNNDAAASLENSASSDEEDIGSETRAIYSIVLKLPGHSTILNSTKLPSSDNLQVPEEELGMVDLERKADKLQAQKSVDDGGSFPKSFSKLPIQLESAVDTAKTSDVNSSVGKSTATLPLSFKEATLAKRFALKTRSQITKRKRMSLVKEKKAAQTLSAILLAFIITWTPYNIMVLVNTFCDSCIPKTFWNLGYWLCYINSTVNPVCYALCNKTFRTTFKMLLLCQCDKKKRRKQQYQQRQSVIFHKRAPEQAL

Ki [3] [nM] | Ki [4] [nM] | Structure (SMILES) | Ki [1] [nM] | Ki [2] [nM] | oxidation/hydroxylation by P450 CYP2D6 enzyme (P450 CYP2D6 enzyme)
 |  | Cc1ccc(O)c([C@H](CCN(C(C)C)C(C)C)c2ccccc2)c1 [tolterodine, 2-[(1R)-3-(diisopropylamino)-1-phenylpropyl)-4-methylphenol, reference compound] | 0.79 | 0.64 | 
8.4 | 16 | CC(C)N(CCC(c1ccccc1)c1cc(C(F)(F)F)ccc1O)C(C)C (racemic) [N,N-Diisopropyl-3-(2-hydroxy-5-trifluoro-methylphenyl)-3-phenylpropanamine] | 3.9 | 6 | not readily hydroxylated at the 5-trifluoromethyl substituent
